Common to all, as to type: ADME
Assay [1] concerns the target T1, Cytochrome P450 1A2 (Homo sapiens, UniProt P05177).
T1 sequence (P05177 whole entry): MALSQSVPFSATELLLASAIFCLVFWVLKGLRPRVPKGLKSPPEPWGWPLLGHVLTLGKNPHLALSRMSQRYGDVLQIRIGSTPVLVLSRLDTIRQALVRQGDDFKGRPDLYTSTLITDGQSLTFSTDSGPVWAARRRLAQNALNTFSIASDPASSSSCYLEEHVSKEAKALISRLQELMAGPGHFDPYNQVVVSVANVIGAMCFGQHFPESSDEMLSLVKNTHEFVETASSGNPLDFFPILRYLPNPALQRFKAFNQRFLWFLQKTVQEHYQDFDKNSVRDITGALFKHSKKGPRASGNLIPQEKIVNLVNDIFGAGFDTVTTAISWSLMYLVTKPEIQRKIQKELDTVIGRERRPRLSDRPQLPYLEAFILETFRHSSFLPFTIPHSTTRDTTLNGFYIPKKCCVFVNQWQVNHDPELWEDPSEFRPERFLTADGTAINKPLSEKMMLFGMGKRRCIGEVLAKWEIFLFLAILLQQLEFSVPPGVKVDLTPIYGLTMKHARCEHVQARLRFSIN
Nature of the assay: Inhibition of human CYP1A2.

The target of assay [2] is Cytochrome P450 2D6 (Homo sapiens, UniProt P10635). The experiment in a line: Inhibition of human CYP2D6.
Chain of Cytochrome P450 2D6 (P10635 whole entry): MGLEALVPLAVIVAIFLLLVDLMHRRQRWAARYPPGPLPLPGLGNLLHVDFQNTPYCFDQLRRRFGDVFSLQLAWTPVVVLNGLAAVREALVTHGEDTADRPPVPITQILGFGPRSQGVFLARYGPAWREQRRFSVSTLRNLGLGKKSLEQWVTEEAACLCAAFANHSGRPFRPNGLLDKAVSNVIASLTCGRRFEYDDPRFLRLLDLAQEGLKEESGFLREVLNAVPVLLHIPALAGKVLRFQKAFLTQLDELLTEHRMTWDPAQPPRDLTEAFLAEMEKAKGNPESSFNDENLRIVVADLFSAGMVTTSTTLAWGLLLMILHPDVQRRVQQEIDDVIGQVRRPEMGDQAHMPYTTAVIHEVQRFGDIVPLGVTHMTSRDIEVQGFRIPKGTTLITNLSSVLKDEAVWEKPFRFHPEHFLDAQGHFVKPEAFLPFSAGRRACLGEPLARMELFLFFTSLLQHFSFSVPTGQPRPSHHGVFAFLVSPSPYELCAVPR
Assay [3] deals with Cytochrome P450 3A4 (Homo sapiens, UniProt P08684). Nature of the assay: Inhibition of human CYP3A4.
Chain of Cytochrome P450 3A4 (P08684 whole entry): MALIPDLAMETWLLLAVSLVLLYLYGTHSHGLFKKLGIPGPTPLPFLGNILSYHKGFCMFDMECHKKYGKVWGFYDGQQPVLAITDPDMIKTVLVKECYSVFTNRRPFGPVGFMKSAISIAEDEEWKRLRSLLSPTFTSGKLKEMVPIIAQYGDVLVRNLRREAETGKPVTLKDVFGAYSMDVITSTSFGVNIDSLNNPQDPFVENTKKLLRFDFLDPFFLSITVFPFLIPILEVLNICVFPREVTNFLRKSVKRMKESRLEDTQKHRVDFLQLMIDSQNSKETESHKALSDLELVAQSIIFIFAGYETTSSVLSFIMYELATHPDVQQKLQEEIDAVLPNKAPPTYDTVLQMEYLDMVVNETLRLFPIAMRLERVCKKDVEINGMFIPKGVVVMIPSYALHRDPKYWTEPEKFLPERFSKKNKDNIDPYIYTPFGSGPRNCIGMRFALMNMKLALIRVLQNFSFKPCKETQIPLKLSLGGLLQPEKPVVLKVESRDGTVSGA
Assay [4] addresses Cytochrome P450 2C9 (Homo sapiens, UniProt P11712). The experiment in a line: Inhibition of human CYP2C9.

A word on the IC50: it is the midpoint of a concentration-inhibition curve. Read a low IC50 as greater potency.

Where only a bound is given, the exact number is not on record here.

Chain of Cytochrome P450 2C9 (P11712 whole entry): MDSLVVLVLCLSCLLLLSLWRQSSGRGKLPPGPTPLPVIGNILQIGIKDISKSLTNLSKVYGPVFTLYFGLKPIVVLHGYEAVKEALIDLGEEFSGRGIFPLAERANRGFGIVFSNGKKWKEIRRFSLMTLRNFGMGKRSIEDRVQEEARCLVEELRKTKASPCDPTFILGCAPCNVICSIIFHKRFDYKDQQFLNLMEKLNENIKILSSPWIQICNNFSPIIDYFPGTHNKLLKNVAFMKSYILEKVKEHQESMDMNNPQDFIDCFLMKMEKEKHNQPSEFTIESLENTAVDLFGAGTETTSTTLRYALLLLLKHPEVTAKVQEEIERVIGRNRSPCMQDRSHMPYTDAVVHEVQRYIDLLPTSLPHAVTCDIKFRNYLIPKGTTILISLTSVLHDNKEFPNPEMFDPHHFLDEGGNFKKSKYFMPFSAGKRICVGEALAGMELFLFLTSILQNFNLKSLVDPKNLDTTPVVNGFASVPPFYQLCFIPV

Regarding `O=c1cc(-c2ccccc2)oc2cc(O)ccc12` [7-HYDROXYFLAVONE], in assay [1], the IC50 was determined as 0.24 µM.
Turning to `O=c1cc(-c2ccccc2)oc2cc(O)cc(O)c12` [CHRYSIN], the IC50 in assay [2] is above 50 µM; in assay [3], above 50 µM; in assay [4], 5.23 µM.
